Results from patent publication US9180164B2, “Compounds and methods of modulating angiogenesis” (THE CLEVELAND CLINIC FOUNDATION, priority 2011, dated 2015).
Where two headings read alike, the source gives them in different places.

Legend:
αvβ3 integrin [1] = assay: Fibrinogen binding assay (FACS); format: cell-based, mouse; details: DiYF EC; 20 ng/ml VEGF or 1 mM MnCl2
Protocol: (§1) To assess fibrinogen binding, semiconfluent wild type and DiYF mouse lung endothelial cells were serum starved for 4 h and further induced with 20 ng/ml VEGF-165, 20 ng/ml b-FGF or 1 mm MnC12. Fluorescein isothiocyanate (FITC)-labeled fibrinogen was added at a final concentration of 200 nM for 45 min. […] Fluorescence-activated cell sorting (FACS) was performed using a FACS Calibur (Becton Dickinson, San Jose, Calif.) and data were analyzed using CellQuest software program.

αvβ3 integrin [2] = biological target: T1, αvβ3 integrin (Mus musculus, UniProt O54890+P43406); assay: Fibrinogen binding assay (FACS); format: cell-based; details: WT EC; 20 ng/ml VEGF or 1 mM MnCl2
T1 construct: endogenous in cells; host or cells: primary mouse lung endothelial cells
T1 sequence (O54890 26-787): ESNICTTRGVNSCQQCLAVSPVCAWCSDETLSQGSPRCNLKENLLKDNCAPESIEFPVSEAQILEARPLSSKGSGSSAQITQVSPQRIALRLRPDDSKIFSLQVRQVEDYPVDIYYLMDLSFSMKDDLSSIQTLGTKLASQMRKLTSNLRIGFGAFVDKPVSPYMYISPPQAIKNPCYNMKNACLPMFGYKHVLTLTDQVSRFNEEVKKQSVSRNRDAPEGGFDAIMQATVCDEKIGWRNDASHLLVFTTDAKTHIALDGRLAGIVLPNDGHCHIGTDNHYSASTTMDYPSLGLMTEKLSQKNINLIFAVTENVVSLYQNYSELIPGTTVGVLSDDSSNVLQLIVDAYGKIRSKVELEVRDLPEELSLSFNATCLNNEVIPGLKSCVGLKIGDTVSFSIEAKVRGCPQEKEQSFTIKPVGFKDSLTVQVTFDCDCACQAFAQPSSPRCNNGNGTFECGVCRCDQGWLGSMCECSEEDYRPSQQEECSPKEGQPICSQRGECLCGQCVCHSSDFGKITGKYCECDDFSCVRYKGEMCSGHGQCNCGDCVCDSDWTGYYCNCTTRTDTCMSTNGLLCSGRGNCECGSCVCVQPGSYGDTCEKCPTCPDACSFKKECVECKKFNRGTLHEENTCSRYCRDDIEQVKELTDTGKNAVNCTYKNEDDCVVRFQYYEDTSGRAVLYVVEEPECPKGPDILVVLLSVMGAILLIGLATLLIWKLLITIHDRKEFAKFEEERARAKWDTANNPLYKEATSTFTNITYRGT
T1 sequence (P43406 31-885 limits assumed): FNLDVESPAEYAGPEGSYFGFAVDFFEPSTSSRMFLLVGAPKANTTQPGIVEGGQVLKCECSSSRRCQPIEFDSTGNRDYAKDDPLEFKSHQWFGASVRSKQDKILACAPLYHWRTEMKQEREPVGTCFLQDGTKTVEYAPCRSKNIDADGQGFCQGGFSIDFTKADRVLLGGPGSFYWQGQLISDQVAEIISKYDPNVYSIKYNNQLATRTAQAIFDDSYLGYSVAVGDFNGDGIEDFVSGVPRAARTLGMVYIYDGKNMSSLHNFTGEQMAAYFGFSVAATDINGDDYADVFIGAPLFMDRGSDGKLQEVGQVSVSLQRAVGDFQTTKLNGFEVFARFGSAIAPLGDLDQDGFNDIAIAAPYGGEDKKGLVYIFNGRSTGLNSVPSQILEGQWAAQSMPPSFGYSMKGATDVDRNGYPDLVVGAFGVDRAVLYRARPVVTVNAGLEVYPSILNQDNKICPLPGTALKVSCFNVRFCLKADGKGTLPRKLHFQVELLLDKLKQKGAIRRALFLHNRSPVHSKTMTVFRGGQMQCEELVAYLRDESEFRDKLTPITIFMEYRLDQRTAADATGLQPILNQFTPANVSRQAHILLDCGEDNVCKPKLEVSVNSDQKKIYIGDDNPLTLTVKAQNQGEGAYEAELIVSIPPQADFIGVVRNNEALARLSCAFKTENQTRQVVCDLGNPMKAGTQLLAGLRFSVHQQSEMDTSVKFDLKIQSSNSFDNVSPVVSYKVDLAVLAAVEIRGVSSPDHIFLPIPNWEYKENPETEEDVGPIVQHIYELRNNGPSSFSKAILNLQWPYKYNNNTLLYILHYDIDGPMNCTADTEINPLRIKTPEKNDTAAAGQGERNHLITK
T1 sequence (P43406 887-1044 limits assumed): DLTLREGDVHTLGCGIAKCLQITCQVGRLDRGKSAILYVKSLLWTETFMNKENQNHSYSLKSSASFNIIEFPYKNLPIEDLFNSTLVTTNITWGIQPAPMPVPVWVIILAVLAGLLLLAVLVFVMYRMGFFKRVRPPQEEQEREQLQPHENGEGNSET
Protocol: as §1

[3] = test system: mouse lung endothelial cells; details: WT EC, vitronectin
Protocol: Transwell tissue culture inserts were coated with various integrin ligands for 24 h at 4° C. Both WT and DiYF lung endothelial cells were trypsinized and 1×10^5 cells were added into each well. The lower chamber contained varying concentrations of VEGF-A165 (0-20 ng/ml). Cells were allowed to migrate for 12 h and fixed with 3.7% formaldehyde/PBS for 15 min and stained with 0.5% crystal violet. The non-migrated cells adhered to the top surface were removed and three random 10× fields were photographed using Leica inverted phase contrast microscope.

αvβ3 integrin [4] = assay: WOW-1 binding assay, mouse lung endothelial cells; format: cell-based; details: DiYF EC; 20 ng/ml VEGF or 1 mM MnCl2
Protocol: (§2) Wild type and DiYF mouse lung endothelial cells were serum starved for 4 h and further stimulated with 20 ng/ml VEGF-165, 20 ng/ml b-FGF or 1 mm MnC12 separately. WoW-1 Fab was added at a final concentration of […], followed by addition of Fluorescein isothiocyanate (FITC) conjugated goat anti-mouse IgG at 10 μg/ml. After 30 min cells were fixed with 3.7% formaldehyde/PBS for 15 min, washed twice with 1×PBS and FACS was performed using a FACS Calibur (Becton Dickinson, San Jose, Calif.) instrument and data were analyzed using CellQuest software program.

αvβ3 integrin [5] = biological target: T1, αvβ3 integrin; assay: WOW-1 binding assay, mouse lung endothelial cells; format: cell-based; details: WT EC; 20 ng/ml VEGF or 1 mM MnCl2
Protocol: as §2

[6] = test system: HUVECs (Human Umbilical vascular endothelial cells); assay: Tube formation assay on Matrigel with inhibitory peptide; format: cell-based; details: 8 h
Protocol: The effect of αvβ3/VEGFR2 complex inhibiting peptides in accordance with the present invention on angiogenic function was assessed by tube formation assay on the basement membrane matrix preparation. […] Cells were washed twice with sterile PBS and seeded on Matrigel-coated plates in combination of presence/absence of VEGF and inhibitory peptide. Cells were further incubated at 37° C. for 8 h.

## VEGF
αvβ3 integrin [1]
  increase of fibrinogen binding: 3 fold
αvβ3 integrin [2]
  increase of fibrinogen binding: at least 6 fold
[3]; 5 ng/ml
  increase of migration compared to untreated EC: 1.5 fold
[3]; 10 ng/ml
  increase of migration compared to untreated EC: 2.5 fold
[3]; 20 ng/ml
  increase of migration compared to untreated EC: 2.9 fold
αvβ3 integrin [4]
  increase in WOW-1 binding: 3.5 fold
αvβ3 integrin [5]
  increase in WOW-1 binding: 9 fold
[6]
  endothelial cell tube formation induced (length of tubes): at least 450 μm/mm^2
